Reference: EPA's ToxValDB 9.5 (doi:10.2903/j.efsa.2017.4693)
In brackets after ≈: the same amount, converted by molar mass.

Tests used:
Apis mellifera = settings: acute, duration: 48 hours, mortality
Canidae = settings: oral, Dog Other, body weight
Colinus virginianus = settings: acute; oral; mortality
Daphnia magna = settings: chronic/long-term; duration: 21 days; reproduction
Hypoaspis aculeifer = settings: chronic/long-term; duration: 14 days; reproduction
Lepomis macrochirus = settings: acute; duration: 96 hours; mortality
Mus musculus = settings: acute; oral; mortality
Oncorhynchus mykiss = settings: chronic/long-term; duration: 87 days; growth
Tagia sp. = settings: chronic/long-term; reproduction
Typhlodromus pyri = test: LR50; higher = less toxic; settings: not reported; mortality

COc1ccc(-c2ccccc2)cc1NNC(=O)OC(C)C [Bifenazate]
NOEL (Anas platyrhynchos; reproductive, duration: 23 weeks, F): 2.3 mg/kg-day | LD50 (Anas platyrhynchos; short-term, oral, feed, mortality): 106 mg/kg-day | LD50 (Apis mellifera; dermal): 8.5 µg/piece | LD50 (Apis mellifera; oral, unspecified): > 100 µg/piece | NOAEL (Canidae; chronic, duration: 1 years): 1 mg/kg-day | NOAEL (Canidae; subchronic, duration: 90 days): 1 mg/kg-day | LD50 (Colinus virginianus): 1040 mg/kg-day | NOEC (Daphnia magna): 0.15 mg/L | NOEC (Hypoaspis aculeifer): 6.56 mg/kg | LC50 (Lepomis macrochirus): 0.58 µg/mL (≈ 1.93 µM) | LD50 (Mus musculus): > 5000 mg/kg-day | NOEC (Oncorhynchus mykiss): 0.017 mg/L | LD50 (Rattus norvegicus; acute, oral, mortality): > 5000 mg/kg-day | NOAEL (Rattus norvegicus; chronic, duration: 2 years, hematological): 1 mg/kg-day | NOAEL (Rattus norvegicus; reproduction developmental, body weight): 10 mg/kg-day | NOAEL (Rattus norvegicus; reproduction developmental, food consumption): 1.5 mg/kg-day | NOEC (Tagia sp.): 9.75 mg/kg | LR50 (Typhlodromus pyri): 23.8 g/ha
